Laboratory results: US20190359645A1, “2'3'-CYCLIC DINUCLEOTIDES COMPRISING CARBOCYCLIC NUCLEOTIDE” (Institute of Organic Chemistry and Biochemistry ASCR, V.V.I., priority 2018, published 2019)

Molecular target: WT STING (Homo sapiens, UniProt Q86WV6, H232R)
Assay: Digitonin assay using 293T wtSTING-FL reporter cells
Type: cell-based
Set-up: host or cells: 293T (ATCC CRL-3216), stably transfected; also carries the 4xISRE firefly luciferase reporter
Conditions: 293T wtSTING-FL cells, digitonin buffer 30 min, then 5 h, ISRE firefly luciferase reporter; read-out: Digitonin assay EC50 WT STING
From the text: Two complementary oligonucleotides of the sequence […] […] […] […] (SEQ ID NO: 1) and […] […] (SEQ ID NO:2) containing four interferon-sensitive response elements (ISRE) were synthesized by Sigma Aldrich (Czech Republic, Prague). The oligonucleotides were mixed in equal molar amounts, hybridized, and cleaved by restriction endonucleases HindIII (cat. #. R^0104S, NEB, Ipswich, USA) and BglII (cat. # R^0144S, NEB, Ipswich, USA). Ultimately, they were ligated into plasmid pGL4.27 (cat. # E6651, Promega, Madison, USA) linearized with the same enzymes. As a result, the sequence with four ISRE sites was placed upstream of the minimum promoter of firefly luciferase reporter gene.
293T cells (cat. # CRL-3216, ATCC, Manassas, USA) were seeded a day before transfection at density 125,000 cells per cm^2 onto poly-D-lysine (cat. # P6407, Sigma Aldrich, Czech Republic) coated six well plates in antibiotic free DMEM with high glucose (cat. # D5796, Sigma Aldrich, Czech Republic) supplemented with 10% heat inactivated FBS (cat. # S1520, Biowest, Riverside, USA). On the day of transfection, 2.5 μg of the plasmid pUNO1-hSTING-WT (cat. # punol-hstingwt, InvivoGen, San Diego, USA,) encoding human wild type STING (WT STING) was diluted in 125 μL OptiMEM medium (cat. #31985062, ThermoFisher, Waltham, USA) and mixed with 125 μL of the same medium containing 12.5 μL of Lipofectamine 2000 (cat. #11668019, ThermoFisher, Waltham, USA). After 5 minutes incubation at room temperature (RT), 250 μL of the mixture was added dropwise to the cells in one well. Cells were incubated 36 hours at 37° C. with 5% CO2, and then detached with 0.05% Trypsin and 0.22 g/L EDTA (both cat. # L0941, Biowest, Riverside, USA).
Transfected cells were seeded onto poly-D-lysine coated six well plates at density 50,000 cells per 1 cm^2 in DMEM medium with high glucose containing 10% heat inactivated FBS, […] blasticidin (cat. # ant-bl-05, InvivoGen, San Diego, USA), 0.06 mg/ml Penicillin G and 0.1 mg/ml Streptomycin Sulfate (both cat. #. L0018, Biowest, Riverside, USA). The medium was replenished every 3-4 days until visible colonies of cells resistant to blasticidin were formed.
Blasticidin resistant cells stably expressing WT STING were further transfected with […] plasmid following the same procedure as described above. The transfected cells were selected for the resistance to 300 μg/mL hygromycin (cat. #. 10687010, ThermoFisher, Waltham, USA) in DMEM with high glucose containing 10% heat inactivated FBS, […] blasticidin, 0.06 mg/ml Penicillin G and 0.1 mg/ml Streptomycin Sulfate. Homogeneous culture of stably double transfected cells was prepared by limiting dilution of cells in 96 well plates and wells with cells were selected that originated from a single cell. These cells were expanded, and expression of WT STING was confirmed by western blot using monoclonal mouse anti STING antibodies (cat. #. MAB7169, 1:1000 dilution; […] cat. #. HAF007, 1:2000 dilution, both from R&D Systems, Minneapolis, USA), and by induction of firefly luciferase expression in the presence of 50 μM STING agonist 2′3′ cGAMP (cat. # tlrl-nacga23, InvivoGen, San Diego, USA). Genomic DNA from the transfected cells was amplified with primers pUNO1_Seq_F ([…]) (SEQ ID NO:3) and pUNO1_Seq_R ([…]) (SEQ ID NO:4) that were complementary to pUNO1 plasmid and the presence of WT STING gene in the transfected cells was confirmed by DNA sequencing.
293T wtSTING-FL cells were seeded at density of 250,000 cells per cm^2 onto 96 well poly-D-lysine coated plates in 100 μl DMEM with high glucose supplemented with 10% heat inactivated FBS. […]

Sequence of WT STING (Q86WV6 whole entry H232R): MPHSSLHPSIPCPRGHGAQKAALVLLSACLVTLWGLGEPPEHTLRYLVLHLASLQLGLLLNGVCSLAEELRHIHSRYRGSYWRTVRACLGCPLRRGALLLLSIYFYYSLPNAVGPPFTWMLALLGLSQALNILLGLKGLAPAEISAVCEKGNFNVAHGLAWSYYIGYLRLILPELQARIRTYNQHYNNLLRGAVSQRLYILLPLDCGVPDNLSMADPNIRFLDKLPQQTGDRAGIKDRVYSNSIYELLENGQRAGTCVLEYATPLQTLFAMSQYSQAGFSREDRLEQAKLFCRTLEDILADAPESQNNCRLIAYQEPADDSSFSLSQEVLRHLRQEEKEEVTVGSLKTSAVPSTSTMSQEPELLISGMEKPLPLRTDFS

SMILES | EC50 [nM]
Cc1cn([C@@H]2O[C@@H]3COP(=O)(O)OC4C(O)[C@@H](COP(=O)(O)OC3C2O)C[C@H]4n2cnc3c(=O)[nH]c(N)nc32)c2ncnc(N)c12 (stereo partly drawn) [Compound 113, (6R,8R,15R,17R)-8-{4-amino-5-methyl-7H-pyrrolo[2,3-d]pyrimidin-7-yl}-17-(2-amino-6-oxo-6,9-dihydro-1H-purin-9-yl)-3,9,12,18-tetrahydroxy-2,4,7,11,13-pentaoxa-3λ^5,12λ^5-diphosphatricyclo[13.2.1.0^6,10]octadecane-3,12-dione] | 120
C#Cc1cn([C@@H]2O[C@@H]3COP(=O)(O)OC4C(O)[C@@H](COP(=O)(O)OC3C2O)C[C@H]4n2cnc3c(=O)[nH]c(N)nc32)c2ncnc(N)c12 (stereo partly drawn) [Compound 114, (6R,8R,15R,17R)-8-{4-amino-5-ethynyl-7H-pyrrolo 2,3-dlpyrimidin-7-yl}-17-(2-amino-6-oxo-6,9-dihydro-1H-purin-9-yl)-3,9,12,18-tetrahydroxy-2,4,7,11,13-pentaoxa-3λ^5,12λ^5-diphosphatricyclo[13.2.1.0^6,10]octadecane-3,12-dione] | 400
Nc1nc2c(ncn2[C@@H]2C[C@@H]3COP(=O)(O)OC4C(O)[C@H](n5cnc6c(Cl)ncnc65)O[C@@H]4COP(=O)(O)OC2C3O)c(=O)[nH]1 (stereo partly drawn) [Compound 115, (6R,8R,15R,17R)-17-(2-amino-6-oxo-6,9-dihydro-1H-purin-9-yl)-8-(6-chloro-9H-purin-9-yl)-3,9,12,18-tetrahydroxy-2,4,7,11,13-pentaoxa-3λ^5,12λ^5-diphosphatricyclo[13.2.1.0^6,10]octadecane-3,12-dione] | 70
Nc1nc2c(ncn2[C@@H]2C[C@@H]3COP(=O)(O)OC4C(O)[C@H](n5nnc6c(N)ncnc65)O[C@@H]4COP(=O)(O)OC2C3O)c(=O)[nH]1 (stereo partly drawn) [Compound 116, (6R,8R,15R,17R)-8-{7-amino-3H-[1,2,3]triazolo[4,5-d]pyrimidin-3-yl}-17-(2-amino-6-oxo-6,9-dihydro-1H-purin-9-yl)-3,9,12,18-tetrahydroxy-2,4,7,11,13-pentaoxa-3λ^5,12λ^5-diphosphatricyclo[13.2.1.0^6,10]octadecane-3,12-dione] | 1700
Nc1nc(N)c2ncn([C@@H]3O[C@@H]4COP(=O)(O)OC5C(O)[C@@H](COP(=O)(O)OC4C3F)C[C@H]5n3cnc4c(=O)[nH]c(N)nc43)c2n1 (stereo partly drawn) [Compound 117, (6R,8R,15R,17R)-17-(2-amino-6-oxo-6,9-dihydro-1H-purin-9-yl)-8-(2,6-diamino-9H-purin-9-yl)-9-fluoro-3,12,18-trihydroxy-2,4,7,11,13-pentaoxa-3λ^5,12λ^5-diphosphatricyclo[13.2.1.0^6,10]octadecane-3,12-dione] | 50
Nc1nc2c(ncn2[C@@H]2C[C@@H]3COP(=O)(S)OC4C(O)[C@H](n5cnc6c(N)ncnc65)O[C@@H]4COP(=O)(O)OC2C3O)c(=O)[nH]1 (stereo partly drawn) [Compound 118, (6R,8R,15R,17R)-17-(2-amino-6-oxo-6,9-dihydro-1H-purin-9-yl)-8-(6-amino-9H-purin-9-yl)-3,9,18-trihydroxy-12-sulfanyl-2,4,7,11,13-pentaoxa-3λ^5,12λ^5-diphosphatricyclo[13.2.1.0^6,10]octadecane-3,12-dione] | 130
Nc1ncc2ncn([C@@H]3O[C@@H]4COP(=O)(O)OC5C(O)[C@@H](COP(=O)(O)OC4C3O)C[C@H]5n3cnc4c(=O)[nH]cnc43)c2n1 (stereo partly drawn) [Compound 119, (6R,8R,15R,17R)-8-(2-amino-9H-purin-9-yl)-3,9,12,18-tetrahydroxy-17-(6-oxo-6,9-dihydro-1H-purin-9-yl)-2,4,7,11,13-pentaoxa-3λ^5,12λ^5-diphosphatricyclo[13.2.1.0^6,10]octadecane-3,12-dione] | 400
Nc1ncnc2c1ncn2[C@@H]1O[C@@H]2COP(=O)(O)OC3C(O)[C@@H](COP(=O)(O)OC2C1O)C[C@H]3n1cnc2c(=O)[nH]cnc21 (stereo partly drawn) [Compound 120, (6R,8R,15R,17R)-8-(6-amino-9H-purin-9-yl)-3,9,12,18-tetrahydroxy-17-(6-oxo-6,9-dihydro-1H-purin-9-yl)-2,4,7,11,13-pentaoxa-3λ^5,12λ^5-diphosphatricyclo[13.2.1.0^6,10]octadecane-3,12-dione] | 30
Nc1ncnc2c1ncn2[C@@H]1O[C@@H]2COP(=O)(O)OC3C(O)[C@@H](COP(=O)(O)OC2C1O)C[C@H]3n1cnc2c(=O)[nH]cnc21 (stereo partly drawn) [Compound 121, (6R,8R,15R,17R)-8-(6-amino-9H-purin-9-yl)-3,9,12,18-tetrahydroxy-17-(6-oxo-6,9-dihydro-1H-purin-9-yl)-2,4,7,11,13-pentaoxa-3λ^5,12λ^5-diphosphatricyclo[13.2.1.0^6,10]octadecane-3,12-dione] | 500
Nc1ncnc2c1ccn2[C@@H]1O[C@@H]2COP(=O)(O)OC3C(O)[C@@H](COP(=O)(O)OC2C1O)C[C@H]3n1cnc2c(=O)[nH]cnc21 (stereo partly drawn) [Compound 122, (6R,8R,15R,17R)-8-{4-amino-7H-pyrrolo[2,3-d]pyrimidin-7-yl}-3,9,12,18-tetrahydroxy-17-(6-oxo-6,9-dihydro-1H-purin-9-yl)-2,4,7,11,13-pentaoxa-3λ^5,12λ^5-diphosphatricyclo[13.2.1.0^6,10]octadecane-3,12-dione] | 140
Cc1cn([C@@H]2O[C@@H]3COP(=O)(O)OC4C(O)[C@@H](COP(=O)(O)OC3C2O)C[C@H]4n2cnc3c(=O)[nH]cnc32)c2ncnc(N)c12 (stereo partly drawn) [Compound 123, (6R,8R,15R,17R)-8-{4-amino-5-methyl-7H-pyrrolo[2,3-d]pyrimidin-7-yl}-3,9,12,18-tetrahydroxy-17-(6-oxo-6,9-dihydro-1H-purin-9-yl)-2,4,7,11,13-pentaoxa-3λ^5,12λ^5-diphosphatricyclo[13.2.1.0^6,10]octadecane-3,12-dione] | 300
Nc1ncnc2c1c(I)cn2[C@@H]1O[C@@H]2COP(=O)(O)OC3C(O)[C@@H](COP(=O)(O)OC2C1O)C[C@H]3n1cnc2c(=O)[nH]cnc21 (stereo partly drawn) [Compound 124, (6R,8R,15R,17R)-8-{4-amino-5-iodo-7H-pyrrolo[2,3-d]pyrimidin-7-yl}-3,9,12,18-tetrahydroxy-17-(6-oxo-6,9-dihydro-1H-purin-9-yl)-2,4,7,11,13-pentaoxa-3λ^5,12λ^5-diphosphatricyclo[13.2.1.0^6,10]octadecane-3,12-dione] | 400
CSc1ncnc2c1ncn2[C@@H]1O[C@@H]2COP(=O)(O)OC3C(O)[C@@H](COP(=O)(O)OC2C1O)C[C@H]3n1cnc2c(=O)[nH]cnc21 (stereo partly drawn) [Compound 125, (1S,6R,8R,9R,10S,15R,17R,18R)-3,9,12,18-tetrahydroxy-8-[16-(methylsulfanyl)-9H-purin-9-yl]-17-(6-oxo-6,9-dihydro-1H-purin-9-yl)-2,4,7,11,13-pentaoxa-3λ^5,12λ^5-diphosphatricyclo[13.2.1.0^6,10]octadecane-3,12-dione] | 210
Nc1ncnc2c1ncn2[C@@H]1O[C@@H]2COP(=O)(O)O[C@@H]3[C@@H](F)[C@@H](COP(=O)(O)O[C@H]2[C@H]1O)C[C@H]3n1cnc2c(=O)[nH]cnc21 [Compound 126, (1S,6R,8R,9R,10S,15R,17R,18S)-8-(6-amino-9H-purin-9-yl)-18-fluoro-3,9,12-trihydroxy-17-(6-oxo-6,9-dihydro-1H-purin-9-yl)-2,4,7,11,13-pentaoxa-3λ^5,12λ^5-diphosphatricyclo[13.2.1.0^6,10]octadecane-3,12-dione] | 50
